According to ChEMBL document CHEMBL4376834, “Discovery of 4H-Chromen-4-one Derivatives as a New Class of Selective Rho Kinase (ROCK) Inhibitors, which Showed Potent Activity in ex Vivo Diabetic Retinopathy Models” (J Med Chem, 2019):

Experiments:
[1] = Half life in rat liver microsomes measured upto 45 mins in presence of NADPH by LC-MS analysis; format: ADME, Microsome
[2] = Intrinsic clearance in rat liver microsomes measured upto 45 mins in presence of NADPH by LC-MS analysis; format: ADME, Microsome; details: read-out: CLH
[3] = target: Tyrosine-protein kinase ABL1 (Homo sapiens, UniProt P00519, M351T); test: Inhibition of human recombinant ABL1 M351T mutant (27 to end residues) using EAIYAAPFAKKK as substrate incubated for 40 mins in presence of [gamma-33P]ATP by scintillation counting based radiometry assay
[4] = target: Bone morphogenetic protein receptor type-1B (Homo sapiens, UniProt O00238); test: Inhibition of human recombinant ALK6 (148 to end residues) using casein as substrate incubated for 40 mins in presence of [gamma-33P]ATP by radiometric scintillation counting analysis
[5] = target: Serine/threonine-protein kinase A-Raf (Homo sapiens, UniProt P10398); test: Inhibition of human recombinant A-Raf (273 to end residues) using myelin as substrate incubated for 40 mins in presence of [gamma-33ATP] by radiometric scintillation counting analysis
[6] = target: Cyclin-dependent kinase 5/CDK5 activator 1 (Homo sapiens, UniProt Q00535); test: Inhibition of recombinant full length human CDK5/p25 using histone H1 as substrate incubated for 40 mins in presence of [gamma-33ATP] by radiometric scintillation counting analysis; format: protein-complex assay
[7] = target: Cyclin-dependent kinase-like 4 (Homo sapiens, UniProt Q5MAI5); test: Inhibition of recombinant full length human CDKL4 in presence of [gamma-33ATP] by radiometric scintillation counting analysis
[8] = target: Serine/threonine-protein kinase Chk2 (Homo sapiens, UniProt O96017, R145W); test: Inhibition of recombinant human CHK2 R145W mutant (5 to end residues) using KKKVSRSGLYRSP as substrate incubated for 40 mins in presence of [gamma-33ATP] by radiometric scintillation counting analysis
Serine/threonine-protein kinase Chk2, sequence (O96017 whole entry R145W): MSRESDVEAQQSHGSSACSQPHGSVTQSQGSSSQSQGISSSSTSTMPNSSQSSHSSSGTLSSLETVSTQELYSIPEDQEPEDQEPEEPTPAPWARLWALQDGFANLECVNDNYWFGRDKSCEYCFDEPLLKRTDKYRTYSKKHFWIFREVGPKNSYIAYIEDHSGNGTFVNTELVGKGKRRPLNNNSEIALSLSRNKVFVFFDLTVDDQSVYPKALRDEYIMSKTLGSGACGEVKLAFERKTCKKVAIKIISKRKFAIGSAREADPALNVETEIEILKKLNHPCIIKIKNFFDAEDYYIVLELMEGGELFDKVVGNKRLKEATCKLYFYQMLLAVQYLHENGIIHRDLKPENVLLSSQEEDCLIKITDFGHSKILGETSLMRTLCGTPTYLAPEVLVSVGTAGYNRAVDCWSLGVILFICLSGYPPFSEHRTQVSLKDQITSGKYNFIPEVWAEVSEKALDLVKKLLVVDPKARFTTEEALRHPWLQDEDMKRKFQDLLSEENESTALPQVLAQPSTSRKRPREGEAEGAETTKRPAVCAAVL

[9] = target: Mast/stem cell growth factor receptor Kit (Homo sapiens, UniProt P10721, V560G); test: Inhibition of recombinant human C-Kit V560G mutant (544 to end residues) using poly(Glu, Tyr) 4:1 as substrate incubated 40 mins in presence of [gamma-33ATP] by radiometric scintillation counting analysis
[10] = target: RAC-beta serine/threonine-protein kinase (Homo sapiens, UniProt P31751, S474D); test: Inhibition of recombinant human PKBbeta S474D mutant (120 to end residues) using GRPRTSSFAEGKK as substrate incubated for 40 mins in presence of [gamma33P]ATP by radiometric scintillation counting analysis
RAC-beta serine/threonine-protein kinase, sequence (P31751 whole entry S474D, the tested form may be a part): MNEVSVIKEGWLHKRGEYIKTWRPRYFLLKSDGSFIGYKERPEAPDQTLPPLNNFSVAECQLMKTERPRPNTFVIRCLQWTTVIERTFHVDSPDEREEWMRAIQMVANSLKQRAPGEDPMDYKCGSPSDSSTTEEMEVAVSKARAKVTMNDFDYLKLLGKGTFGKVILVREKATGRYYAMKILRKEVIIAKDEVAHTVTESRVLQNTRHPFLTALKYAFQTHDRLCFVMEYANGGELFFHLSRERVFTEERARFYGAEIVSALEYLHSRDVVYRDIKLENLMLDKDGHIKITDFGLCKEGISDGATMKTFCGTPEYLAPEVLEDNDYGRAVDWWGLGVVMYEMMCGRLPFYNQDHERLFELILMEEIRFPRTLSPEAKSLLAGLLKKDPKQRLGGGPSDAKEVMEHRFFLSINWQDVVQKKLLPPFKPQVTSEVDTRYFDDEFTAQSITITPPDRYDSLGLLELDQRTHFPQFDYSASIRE

Myosin-IIIb = Myosin-IIIb (Homo sapiens, UniProt Q8WXR4); test: Inhibition of recombinant human MYO3B (1 to 326 residues) using RLGRDKYKTLRQI as substrate measured after 40 mins in presence of [gamma33P]ATP by radiometric scintillation counting analysis
[11] = target: Serine/threonine-protein kinase Nek2 (Homo sapiens, UniProt P51955); test: Inhibition of recombinant full-length human NEK2 using myelin basic protein as substrate measured after 40 mins in presence of [gamma33P]ATP by radiometric scintillation counting analysis
Serine/threonine-protein kinase Nek2, sequence (P51955 whole entry): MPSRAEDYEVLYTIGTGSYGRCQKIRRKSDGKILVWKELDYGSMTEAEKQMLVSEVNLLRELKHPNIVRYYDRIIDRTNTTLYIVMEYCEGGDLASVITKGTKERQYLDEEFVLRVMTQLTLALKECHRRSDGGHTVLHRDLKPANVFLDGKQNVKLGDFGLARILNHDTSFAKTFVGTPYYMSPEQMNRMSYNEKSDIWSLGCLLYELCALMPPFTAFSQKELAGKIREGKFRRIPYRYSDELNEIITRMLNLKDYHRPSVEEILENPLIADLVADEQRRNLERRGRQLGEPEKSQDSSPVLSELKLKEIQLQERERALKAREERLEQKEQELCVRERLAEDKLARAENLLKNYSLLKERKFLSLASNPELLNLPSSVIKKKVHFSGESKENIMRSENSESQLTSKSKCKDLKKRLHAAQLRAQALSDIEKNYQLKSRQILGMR

[12] = target: Serine/threonine-protein kinase NIM1 (Homo sapiens, UniProt Q8IY84); test: Inhibition of recombinant full length human NIM1 using KKKVSRSGLYRSP as substrate measured after 40 mins in presence of [gamma33P]ATP by radiometric scintillation counting analysis
Serine/threonine-protein kinase NIM1, sequence (Q8IY84 whole entry): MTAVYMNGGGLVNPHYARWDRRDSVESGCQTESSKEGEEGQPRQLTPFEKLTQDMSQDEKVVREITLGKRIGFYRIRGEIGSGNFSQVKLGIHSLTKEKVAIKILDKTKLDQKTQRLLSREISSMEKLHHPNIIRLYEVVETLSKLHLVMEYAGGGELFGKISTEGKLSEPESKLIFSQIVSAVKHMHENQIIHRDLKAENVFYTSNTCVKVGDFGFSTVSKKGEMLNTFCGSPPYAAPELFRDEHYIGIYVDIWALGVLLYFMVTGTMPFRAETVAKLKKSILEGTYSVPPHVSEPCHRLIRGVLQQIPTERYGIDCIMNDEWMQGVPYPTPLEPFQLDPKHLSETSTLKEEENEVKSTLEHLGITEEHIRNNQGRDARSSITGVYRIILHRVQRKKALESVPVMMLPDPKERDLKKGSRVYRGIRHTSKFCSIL

[13] = target: Hepatocyte growth factor receptor (Homo sapiens, UniProt P08581, Y1230D); test: Inhibition of recombinant human MET A1209G/V1290L/Y1248D triple mutant (974 to end residues) using KKKGQEEEYVFIE as substrate incubated for 40 mins in presence of [gamma-33ATP by radiometric scintillation counting analysis
[14] = target: Eukaryotic translation initiation factor 2-alpha kinase 3 (Homo sapiens, UniProt Q9NZJ5); test: Inhibition of human PEK (536 to end residues) using RSRSRSRSRSRSRSR as substrate measured after 40 mins in presence of [gamma33P]ATP by radiometric scintillation counting analysis
Eukaryotic translation initiation factor 2-alpha kinase 3, sequence (Q9NZJ5 whole entry, the tested form may be a part): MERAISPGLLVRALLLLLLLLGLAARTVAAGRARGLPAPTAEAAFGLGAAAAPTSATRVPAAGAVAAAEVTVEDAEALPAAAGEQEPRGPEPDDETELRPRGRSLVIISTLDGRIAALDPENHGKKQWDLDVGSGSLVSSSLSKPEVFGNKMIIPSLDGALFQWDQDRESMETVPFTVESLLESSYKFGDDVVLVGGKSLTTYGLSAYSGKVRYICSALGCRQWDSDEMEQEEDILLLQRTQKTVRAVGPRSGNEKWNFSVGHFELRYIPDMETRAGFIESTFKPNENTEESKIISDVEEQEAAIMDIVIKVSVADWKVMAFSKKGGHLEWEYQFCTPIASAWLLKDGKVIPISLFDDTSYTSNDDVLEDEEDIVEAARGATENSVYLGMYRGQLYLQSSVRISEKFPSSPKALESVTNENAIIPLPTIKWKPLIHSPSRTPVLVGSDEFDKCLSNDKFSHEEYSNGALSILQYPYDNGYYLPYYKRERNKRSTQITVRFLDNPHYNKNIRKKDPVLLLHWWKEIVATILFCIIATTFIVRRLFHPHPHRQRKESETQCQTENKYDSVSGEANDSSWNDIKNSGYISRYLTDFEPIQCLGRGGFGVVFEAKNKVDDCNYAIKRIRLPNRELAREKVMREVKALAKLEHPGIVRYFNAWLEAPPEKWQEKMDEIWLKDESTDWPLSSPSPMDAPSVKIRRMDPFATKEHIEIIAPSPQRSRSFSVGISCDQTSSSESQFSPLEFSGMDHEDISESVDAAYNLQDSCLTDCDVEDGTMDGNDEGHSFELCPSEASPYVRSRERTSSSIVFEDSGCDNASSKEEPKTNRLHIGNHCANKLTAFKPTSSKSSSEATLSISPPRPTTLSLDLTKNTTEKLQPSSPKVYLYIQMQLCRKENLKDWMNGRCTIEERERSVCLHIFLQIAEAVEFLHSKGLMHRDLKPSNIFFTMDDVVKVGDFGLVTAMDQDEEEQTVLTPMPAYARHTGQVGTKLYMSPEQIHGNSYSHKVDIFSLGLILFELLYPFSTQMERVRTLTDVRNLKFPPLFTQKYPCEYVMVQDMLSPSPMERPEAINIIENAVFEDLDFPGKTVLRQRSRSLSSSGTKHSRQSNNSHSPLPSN

[15] = target: Receptor tyrosine-protein kinase erbB-4 (Homo sapiens, UniProt Q15303); test: Inhibition of recombinant human ERBB4 (706 to 991 residues) using poly(Glu, Tyr) 4:1 as substrate after 40 mins in presence of [gamma-33ATP] by radiometric scintillation counting analysis
[16] = target: Glycogen synthase kinase-3 beta (Homo sapiens, UniProt P49841); test: Inhibition of human GSK-3beta H350L mutant (2 to end residues) using YRRAAVPPSPSLSR as substrate after 40 mins by [gamma-33ATP] radiometric assay
Glycogen synthase kinase-3 beta, sequence (P49841 whole entry): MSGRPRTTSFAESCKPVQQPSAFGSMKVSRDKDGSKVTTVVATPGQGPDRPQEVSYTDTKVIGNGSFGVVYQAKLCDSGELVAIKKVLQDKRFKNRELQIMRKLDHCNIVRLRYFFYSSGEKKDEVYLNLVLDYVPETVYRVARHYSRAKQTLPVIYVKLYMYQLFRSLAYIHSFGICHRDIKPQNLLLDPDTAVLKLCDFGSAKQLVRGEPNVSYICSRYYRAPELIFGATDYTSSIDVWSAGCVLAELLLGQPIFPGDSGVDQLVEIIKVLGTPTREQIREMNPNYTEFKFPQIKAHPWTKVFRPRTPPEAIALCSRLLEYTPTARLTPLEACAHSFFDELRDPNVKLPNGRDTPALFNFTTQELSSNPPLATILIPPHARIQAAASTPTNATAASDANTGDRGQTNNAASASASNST

[17] = target: Mitogen-activated protein kinase 8 (Homo sapiens, UniProt P45983); test: Inhibition of recombinant full length human JNK1alpha1 using ATF2 as substrate after 40 mins by [gamma-33ATP] by radiometric scintillation counting analysis
Mitogen-activated protein kinase 8, sequence (P45983 whole entry): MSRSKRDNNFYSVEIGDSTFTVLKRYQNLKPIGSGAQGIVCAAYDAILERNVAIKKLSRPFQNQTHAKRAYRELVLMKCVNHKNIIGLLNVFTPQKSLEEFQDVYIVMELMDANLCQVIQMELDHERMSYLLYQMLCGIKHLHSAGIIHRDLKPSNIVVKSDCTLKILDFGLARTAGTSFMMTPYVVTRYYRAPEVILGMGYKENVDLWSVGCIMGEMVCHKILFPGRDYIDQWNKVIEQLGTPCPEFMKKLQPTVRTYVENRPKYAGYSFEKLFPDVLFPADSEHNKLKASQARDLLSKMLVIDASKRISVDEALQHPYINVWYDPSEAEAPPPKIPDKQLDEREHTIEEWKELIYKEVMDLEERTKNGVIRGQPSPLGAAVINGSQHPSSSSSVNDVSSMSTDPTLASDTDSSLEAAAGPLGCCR

[18] = target: Mitogen-activated protein kinase 10 (Homo sapiens, UniProt P53779); test: Inhibition of recombinant full length human JNK3 using peptide substrate after 40 mins by [gamma-33ATP] by radiometric scintillation counting analysis
[19] = Inhibition of recombinant human Plk4 S34T mutant (1 to 273 residues) using casein as substrate incubated for 40 mins in presence of [gamma33P]ATP by radiometric scintillation counting analysis
[20] = target: Mitogen-activated protein kinase 14 (Homo sapiens, UniProt Q16539, T106M); test: Inhibition of recombinant human full length SAPK2a T106M mutant using myelin basic protein as substrate incubated for 40 mins in presence of [gamma33P]ATP by radiometric scintillation counting analysis
Mitogen-activated protein kinase 14, sequence (Q16539 2-360 T106M limits assumed): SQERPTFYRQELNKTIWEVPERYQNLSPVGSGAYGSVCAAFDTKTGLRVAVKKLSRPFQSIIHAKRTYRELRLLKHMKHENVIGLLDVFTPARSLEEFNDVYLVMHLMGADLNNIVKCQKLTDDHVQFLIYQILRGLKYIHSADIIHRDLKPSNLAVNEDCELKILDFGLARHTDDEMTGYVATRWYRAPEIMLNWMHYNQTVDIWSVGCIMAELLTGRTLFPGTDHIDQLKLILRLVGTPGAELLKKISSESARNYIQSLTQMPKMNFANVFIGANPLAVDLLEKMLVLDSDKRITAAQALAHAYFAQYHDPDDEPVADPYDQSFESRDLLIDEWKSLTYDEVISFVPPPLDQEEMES

[21] = target: Serine/threonine-protein kinase Sgk2 (Homo sapiens, UniProt Q9HBY8, S416D); test: Inhibition of recombinant human SGK2 S416D mutant (54 to end residues) using GRPRTSSFAEGKK as substrate incubated for 40 mins in presence of [gamma33P]ATP by radiometric scintillation counting analysis
[22] = target: Mitogen-activated protein kinase kinase kinase 7 (Homo sapiens, UniProt O43318); test: Inhibition of recombinant human TAK1 (1 to 303 residues) using casein as substrate incubated for 40 mins in presence of [gamma33P]ATP by radiometric scintillation counting analysis
[23] = target: Death-associated protein kinase 3 (Homo sapiens, UniProt O43293); test: Inhibition of recombinant human ZIPK (1 to 290 residues) using KKLNRTLSFAEPG substrate incubated for 40 mins in presence of [gamma33P]ATP by radiometric scintillation counting analysis
Death-associated protein kinase 3, sequence (O43293 whole entry, the tested form may be a part): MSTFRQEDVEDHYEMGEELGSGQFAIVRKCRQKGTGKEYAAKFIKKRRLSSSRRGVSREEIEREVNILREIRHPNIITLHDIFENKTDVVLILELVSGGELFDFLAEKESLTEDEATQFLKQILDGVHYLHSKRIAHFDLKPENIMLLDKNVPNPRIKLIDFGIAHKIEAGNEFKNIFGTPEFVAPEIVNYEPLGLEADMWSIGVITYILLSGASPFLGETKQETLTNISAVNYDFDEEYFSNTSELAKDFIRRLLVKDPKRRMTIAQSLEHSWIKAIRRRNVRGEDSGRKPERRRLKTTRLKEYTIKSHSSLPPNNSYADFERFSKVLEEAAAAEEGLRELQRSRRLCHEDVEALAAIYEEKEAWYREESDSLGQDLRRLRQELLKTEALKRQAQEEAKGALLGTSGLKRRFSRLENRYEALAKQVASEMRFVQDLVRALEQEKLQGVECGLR

PI3K p110 beta/p85 alpha = PI3K p110 beta/p85 alpha (Homo sapiens, UniProt P42338); test: Inhibition of recombinant human full length PI3K p110beta/p85alpha using phosphatidylinositol-4, 5-bisphosphate as substrate incubated for 40 mins in presence of [gamma33P]ATP by radiometric scintillation counting analysis; format: protein-complex assay
[24] = target: PI3-kinase p110-alpha/p85-alpha (Homo sapiens, UniProt P42336, H1047R); test: Inhibition of recombinant human full length PI3K p110alpha/p85alpha H1047R mutant using phosphatidylinositol 4,5-bisphosphate as substrate incubated for 40 mins in presence of [gamma33P]ATP by radiometric scintillation counting analysis

CN(C)c1ccc(C(=O)Nc2cccc(NC(=O)COc3ccc4c(=O)ccoc4c3)c2)cc1
half-life [1]: 1.1 min
CLint scaled [2]: 2260 mL/min/kg
IC50 [3]: > 10 µM
IC50 [4]: > 10 µM
IC50 [5]: > 10 µM
IC50 [6]: > 10 µM
IC50 [7]: > 10 µM
IC50 [8]: > 10 µM
IC50 [9]: > 10 µM
IC50 [10]: > 10 µM
IC50 (Myosin-IIIb): > 10 µM
IC50 [11]: > 10 µM
IC50 [12]: > 10 µM
IC50 [13]: > 10 µM
IC50 [14]: > 10 µM
IC50 [15]: > 10 µM
IC50 [16]: > 10 µM
IC50 [17]: > 10 µM
IC50 [18]: > 10 µM
IC50 [19]: > 10 µM
IC50 [20]: > 10 µM
IC50 [21]: > 10 µM
IC50 [22]: > 10 µM
IC50 [23]: > 10 µM
IC50 (PI3K p110 beta/p85 alpha): > 10 µM
IC50 [24]: > 10 µM
